Results on eleven compounds are retold here after patent publication US10370351B2, “Photoinduced electron transfer voltage-sensitive compounds” (The Regents of the University of California, priority 2016, dated 2019).

In brackets after ≈: the same amount, converted by molar mass.

Tested on in the first series: not listed separately
The series is described as follows: Solubility of VoltageFluor dyes and sulfofluoresceins in water. It is filed as physicochemical. The note with it: ds vs ms VF dye; distilled water, 0.1% DMSO, 20 degrees Celsius, UV-Vis. On the procedure:
Suspensions of 5 milligrams each of solid mono- and disulfo-dichlorofluoresceins in 5 mL of distilled water were created. Over the course of three days, 5 milligrams of solid material was added at a time, ensuring that no visible particulates were present in the solution prior to addition. At the end of the experiment, the suspension was filtered through filter paper and then through a 0.22-μm polytetrafluoroethylene filter into a scintillation vial. 10 μL of this filtrate was used as a stock solution to determine the concentration of fluorescein present via UV-Vis spectrophotometry and the remainder was lyophilized and the amount of solid resulting was measured using an analytical microbalance. For VF dyes (VF2.1.Cl and VF2.2(OMe).Cl, both ms and ds versions), saturated solutions in distilled water were prepared via dilution from a 100 μM stock in DMSO for a resulting solution containing 0.1% DMSO. The solutions were allowed to sit overnight at 20 degrees Celsius and then filtered through 0.22-μm filters. The resulting filtrates were used as stock solutions to determine the amount of VF present via UV-Vis spectrophotometry.
As to `CN(C)c1ccc(/C=C/c2ccc(/C=C/c3cc(S(=O)(=O)O)c(-c4c5cc(Cl)c(=O)cc-5oc5cc(O)c(Cl)cc45)c(S(=O)(=O)O)c3)cc2)cc1` [dsVF2.1.Cl], the “improvement of aqueous solubility by second sulfonate” value is listed as 22%.

The series is the same for the next values; noted with them: relative to monosulfo 5; spectroscopically or gravimetrically.
For “5-bromo-2′,7′-dichlorodisulfofluorescein [ds-dichlorofluorescein]”, the “improvement of aqueous solubility” value is 2.3 fold.

The series is the same for the next values; noted with them: water, 20 °C, water, kinetic from dmso stock; H2O with 0.1% DMSO; read-out: aqueous solubility.
One may read the solubility as the dissolved amount per volume that the medium holds. On to `O=c1cc2oc3cc(O)c(Cl)cc3c(-c3c(S(=O)(=O)O)cc(Br)cc3S(=O)(=O)O)c-2cc1Cl` [ds-dichlorofluorescein, 5-bromo-2′,7′-dichlorodisulfofluorescein], for which the solubility at 3 days is at most 940 µM.

Regarding `O=c1cc2oc3cc(O)c(Cl)cc3c(-c3ccc(Br)cc3S(=O)(=O)O)c-2cc1Cl` [ms-dichlorofluorescein, 5-bromo-2′,7′-dichlorosulfofluorescein], the solubility at 3 days is 410 µM (≈ 212 µg/mL).

The next series has as its system HEK293T cells. The series is described as follows: Voltage sensitivity in HEK cells, whole-cell patch clamp with fluorescence imaging. The note with it: per 100 mV; HEK cells, whole-cell voltage clamp, 200 nM VF. The format is cell-based. As to the method:
Functional imaging of VF dyes was performed using a 20× objective paired with image capture from the EMCCD camera at a sampling rate of 0.5 kHz. VF dyes were excited using the 488 nm LED with an intensity of 2.5 W/cm^2. For initial voltage characterization emission was collected with the QUAD filter (430/32, 508/14, 586/30, 708/98 nm) after passing through a quadruple dichroic mirror (432/38, 509/22, 586/40, 654 nm LP).
Recordings were obtained with an Axopatch 200B amplifier (Molecular Devices) at room temperature. The signals were digitized with Digidata 1332A, sampled at 50 kHz and recorded with pCLAMP 10 software (Molecular Devices) on a PC. Fast capacitance was compensated in the on-cell configuration. For all electrophysiology experiments, recordings were only pursued if series resistance in voltage clamp was less than 30 MΩ. For whole-cell, voltage clamp recordings in HEK 293T cells, cells were held at −60 mV and 100 ms hyper- and depolarizing steps applied from −100 to +100 mV in 20 mV increments. For whole-cell, following membrane rupture, resting membrane potential was assessed and recorded at I=0 and monitored during the data acquisition.
Analysis of voltage sensitivity in HEK cells was performed using custom Matlab routines. Briefly, a region of interest (ROI) was selected automatically based on fluorescence intensity and applied as a mask to all image frames. Fluorescence intensity values were calculated at known baseline and voltage step epochs.
To determine the voltage sensitivity of each of the dyes, whole-cell patch clamp electrophysiology was performed on HEK293T cells loaded with 200 nM VF (FIG. 8a-d). Depolarization of the cell membrane in the presence of VF dye results in a large increase of fluorescence, while hyperpolarization results in lower levels of fluorescence (FIG. 8c-d; FIG. 9). As an illustrative comparison, msVF2.2(OMe). […] Cl, at 48% per 100 mV. The disulfoVF2.2(OMe).
Background: The patch-clamp technique gives a direct electrical read-out from membranes.
As to `CN(C)c1ccc(/C=C/c2ccc(/C=C/c3cc(S(=O)(=O)O)c(-c4c5cc(Cl)c(=O)cc-5oc5cc(O)c(Cl)cc45)c(S(=O)(=O)O)c3)cc2)cc1` [dsVF2.1.Cl], the “ΔF/F (%) voltage sensitivity” value came to 36%.

`CN(C)c1ccc(/C=C/c2ccc(/C=C/c3cc(S(=O)(=O)O)c(-c4c5cc(F)c(=O)cc-5oc5cc(O)c(F)cc45)c(S(=O)(=O)O)c3)cc2)cc1` [dsVF2.1.F]: the “ΔF/F (%) voltage sensitivity” value stood at 33%.

For the compound `CN(C)c1ccc(/C=C/c2ccc(/C=C/c3cc(S(=O)(=O)O)c(-c4c5ccc(=O)cc-5oc5cc(O)ccc45)c(S(=O)(=O)O)c3)cc2)cc1` [dsVF2.1.H], the “ΔF/F (%) voltage sensitivity” value is on record as 20%.

As to `CCN(CC)c1ccc(/C=C/c2ccc(/C=C/c3cc(S(=O)(=O)O)c(-c4c5cc(F)c(=O)cc-5oc5cc(O)c(F)cc45)c(S(=O)(=O)O)c3)cc2)c(OC)c1` [dsVF2.2(OMe).F], the “ΔF/F (%) voltage sensitivity” value stood at 60%.

On to `CCN(CC)c1ccc(/C=C/c2ccc(/C=C/c3cc(S(=O)(=O)O)c(-c4c5ccc(=O)cc-5oc5cc(O)ccc45)c(S(=O)(=O)O)c3)cc2)c(OC)c1` [dsVF2.2(OMe).H], for which the “ΔF/F (%) voltage sensitivity” value was 57%.

For the compound `CCN(CC)c1ccc(/C=C/c2ccc(/C=C/c3ccc(-c4c5cc(Cl)c(=O)cc-5oc5cc(O)c(Cl)cc45)c(S(=O)(=O)O)c3)cc2)c(OC)c1` [msVF2.2(OMe).Cl], the “ΔF/F (%) voltage sensitivity” value turned out to be 53%.

Take `CCN(CC)c1ccc(/C=C/c2ccc(/C=C/c3ccc(-c4c5cc(F)c(=O)cc-5oc5cc(O)c(F)cc45)c(S(=O)(=O)O)c3)cc2)c(OC)c1` [msVF2.2(OMe).F]: the “ΔF/F (%) voltage sensitivity” value is listed as 49%.

Turning to `CCN(CC)c1ccc(/C=C/c2ccc(/C=C/c3ccc(-c4c5ccc(=O)cc-5oc5cc(O)ccc45)c(S(=O)(=O)O)c3)cc2)c(OC)c1` [msVF2.2(OMe).H], the “ΔF/F (%) voltage sensitivity” value came out at 53%.

The series is the same for the next values; noted with them: per 100 mV; HEK cells, whole-cell voltage clamp, 200 nM VF; listed as msVF2.2(OMe). Cl.
Turning to `CCN(CC)c1ccc(/C=C/c2ccc(/C=C/c3ccc(-c4c5cc(Cl)c(=O)cc-5oc5cc(O)c(Cl)cc45)c(S(=O)(=O)O)c3)cc2)c(OC)c1` [msVF2.2(OMe).Cl], the “ΔF/F (%) voltage sensitivity” value was “approximately 53%”.

The series is the same for the next values; noted with them: relative to corresponding msVF.
On to `CN(C)c1ccc(/C=C/c2ccc(/C=C/c3cc(S(=O)(=O)O)c(-c4c5cc(Cl)c(=O)cc-5oc5cc(O)c(Cl)cc45)c(S(=O)(=O)O)c3)cc2)cc1` [dsVF2.1.Cl], for which the “Improvement (%) in voltage sensitivity” value is reported as 21%.

As for `CN(C)c1ccc(/C=C/c2ccc(/C=C/c3cc(S(=O)(=O)O)c(-c4c5cc(F)c(=O)cc-5oc5cc(O)c(F)cc45)c(S(=O)(=O)O)c3)cc2)cc1` [dsVF2.1.F], the “Improvement (%) in voltage sensitivity” value stood at 25%.

`CN(C)c1ccc(/C=C/c2ccc(/C=C/c3cc(S(=O)(=O)O)c(-c4c5ccc(=O)cc-5oc5cc(O)ccc45)c(S(=O)(=O)O)c3)cc2)cc1` [dsVF2.1.H]: the “Improvement (%) in voltage sensitivity” value worked out at 17%.

On to `CCN(CC)c1ccc(/C=C/c2ccc(/C=C/c3cc(S(=O)(=O)O)c(-c4c5cc(F)c(=O)cc-5oc5cc(O)c(F)cc45)c(S(=O)(=O)O)c3)cc2)c(OC)c1` [dsVF2.2(OMe).F], for which the “Improvement (%) in voltage sensitivity” value is on record as 22%.

On to `CCN(CC)c1ccc(/C=C/c2ccc(/C=C/c3cc(S(=O)(=O)O)c(-c4c5ccc(=O)cc-5oc5cc(O)ccc45)c(S(=O)(=O)O)c3)cc2)c(OC)c1` [dsVF2.2(OMe).H], for which the “Improvement (%) in voltage sensitivity” value is 9%.

Tested on in the next series: not listed separately
The series is described as follows: Spectroscopic studies (absorbance, emission, quantum yield). The format is physicochemical. The note with it: phosphate-buffered saline, pH 7.4 with 0.1% Triton X-100. As to the method:
Stock solutions of VF dyes were prepared in DMSO (1.0-10 mM) and diluted with PBS (100 mM Na2HPO4, pH 7.4, 0.1% Triton-X). UV-Vis absorbance and fluorescence spectra were recorded using a Shimadzu 2501 Spectrophotometer (Shimadzu) and a Quantamaster Master 4 L-format scanning spectrofluorometer (Photon Technologies International). The fluorometer is equipped with an LPS-220B 75-W xenon lamp and power supply, A-1010B lamp housing with integrated igniter, switchable 814 photon-counting/analog photomultiplier detection unit, and MD5020 motor driver. Samples were measured in 1-cm path length quartz cuvettes (Starna Cells).
Turning to `CN(C)c1ccc(/C=C/c2ccc(/C=C/c3cc(S(=O)(=O)O)c(-c4c5cc(Cl)c(=O)cc-5oc5cc(O)c(Cl)cc45)c(S(=O)(=O)O)c3)cc2)cc1` [dsVF2.1.Cl], the “Φf1 (fluorescence quantum yield)” value was determined as 0.08, the λabs is 520 nm and the λem was 539 nm.

As for `CN(C)c1ccc(/C=C/c2ccc(/C=C/c3cc(S(=O)(=O)O)c(-c4c5cc(F)c(=O)cc-5oc5cc(O)c(F)cc45)c(S(=O)(=O)O)c3)cc2)cc1` [dsVF2.1.F], the “Φf1 (fluorescence quantum yield)” value was found to be 0.13, the λabs was 507 nm and the λem amounted to 529 nm.

Regarding `CN(C)c1ccc(/C=C/c2ccc(/C=C/c3cc(S(=O)(=O)O)c(-c4c5ccc(=O)cc-5oc5cc(O)ccc45)c(S(=O)(=O)O)c3)cc2)cc1` [dsVF2.1.H], the “Φf1 (fluorescence quantum yield)” value amounted to 0.14, the λabs worked out at 509 nm and the λem came to 540 nm.

`CCN(CC)c1ccc(/C=C/c2ccc(/C=C/c3cc(S(=O)(=O)O)c(-c4c5cc(F)c(=O)cc-5oc5cc(O)c(F)cc45)c(S(=O)(=O)O)c3)cc2)c(OC)c1` [dsVF2.2(OMe).F]: the “Φf1 (fluorescence quantum yield)” value is 0.06, the λabs was found to be 509 nm and the λem was 529 nm.

On to `CCN(CC)c1ccc(/C=C/c2ccc(/C=C/c3cc(S(=O)(=O)O)c(-c4c5ccc(=O)cc-5oc5cc(O)ccc45)c(S(=O)(=O)O)c3)cc2)c(OC)c1` [dsVF2.2(OMe).H], for which the “Φf1 (fluorescence quantum yield)” value was 0.11, the λabs is 510 nm and the λem was determined as 530 nm.

In the case of `CCN(CC)c1ccc(/C=C/c2ccc(/C=C/c3ccc(-c4c5cc(Cl)c(=O)cc-5oc5cc(O)c(Cl)cc45)c(S(=O)(=O)O)c3)cc2)c(OC)c1` [msVF2.2(OMe).Cl], the “Φf1 (fluorescence quantum yield)” value was found to be 0.06, the λabs came out at 518 nm and the λem came to 534 nm.

As for `CCN(CC)c1ccc(/C=C/c2ccc(/C=C/c3ccc(-c4c5cc(F)c(=O)cc-5oc5cc(O)c(F)cc45)c(S(=O)(=O)O)c3)cc2)c(OC)c1` [msVF2.2(OMe).F], the “Φf1 (fluorescence quantum yield)” value was found to be 0.06, the λabs worked out at 505 nm and the λem is 524 nm.

As to `CCN(CC)c1ccc(/C=C/c2ccc(/C=C/c3ccc(-c4c5ccc(=O)cc-5oc5cc(O)ccc45)c(S(=O)(=O)O)c3)cc2)c(OC)c1` [msVF2.2(OMe).H], the “Φf1 (fluorescence quantum yield)” value is 0.08, the λabs came to 508 nm and the λem was determined as 530 nm.
